Data from patent publication US20230069590A1, “CONCENTRATED SODIUM VALPROATE FOR RAPID DELIVERY” (priority 2020, published 2023).
“And” between values parts separate entries of the source, which are not always exact repeats. Identical values can stand only once. Like-named read-outs stand apart in the source and are kept apart here.

How the values were obtained:
[1] = system: lethal model of polytrauma, HS and TBI; test: Hemodynamics (MAP, adverse hemodynamic effects) in polytrauma, HS and TBI model (Example 1)
Excerpt: (§1) Bilateral 5-Fr 11-cm arterial catheters and an 8-Fr 11-cm central venous catheter (Super Sheath, Boston Scientific Corporation, Marlborough, Mass.) were placed by femoral cutdown for arterial pressure monitoring, controlled arterial hemorrhage and central venous normal saline (NS; 0.9% sodium chloride solution) administration. An open cystostomy tube was placed for urine output monitoring. The right external jugular vein was then accessed percutaneously under ultrasound guidance, and a pulmonary artery catheter was placed for monitoring of pulmonary artery pressure and cardiac output.
(§2) Treatment groups are outlined in Table 1. […] In order to simulate prolonged field care (PFC) by a combat medic, three times the hemorrhage volume of NS was delivered centrally through femoral vein catheter over 1 hour using the Masterflex pump. […] To simulate delayed evacuation to definitive care after PFC, autologous packed red blood cells (pRBCs) were transfused 3 hours after the completion of shock phase at a rate of 25 mL/hr. Animals were then monitored for an additional 4 hours to simulate time in a critical care unit, after which animals were euthanized with Euthasol (sodium pentobarbital 100 mg/kg, Virbec, Fort Worth, Tex.) if the animal survived to the end of the experiment. Laboratory parameters were monitored, and electrolyte abnormalities (e.g. hyperkalemia and hypoglycemia) were corrected as needed.

[2] = Further experiments: infusion of 150 mg/kg over 1 hour, hemodynamic effects; assay type: in vivo; conditions: 150 mg/kg delivered over 1 hour
[3] = system: histone acetylation; conditions: 150 mg/kg, at the end of a 3-hour VPA infusion; cited from earlier work
[4] = system: lethal model of polytrauma, HS and TBI; test: Serum AST and CPK in polytrauma, HS and TBI model (Example 1); assay type: in vivo, swine; conditions: for Serum aspartate aminotransferase (AST): 3 hours post-treatment
Description: as §2

[5] = Pharmacokinetic Analysis (TABLE 1 in Example 1); assay type: in vivo, swine
[6] = healthy human subjects, 140 mg/kg given over one hour; cited from earlier work
[7] = system: TBI by controlled cortical impact; test: Brain lesion size, TTC staining, controlled for time (Example 1); assay type: in vivo, swine; conditions: VPA 150 (150 mg/kg over 3 h); lesion volume divided by time from injury
Excerpt: (§3) The animal was then flipped prone in preparation for TBI and additional hemorrhage. TBI was made by controlled cortical impact (Ref. 21; incorporated by reference in its entirety). A skin flap was raised on the anterior skull to expose the bregma, followed by a 21 mm burr hole on the right side next to the coronal and sagittal sutures to expose the dura. The computer controlled cortical impactor (University of Michigan Innovation Center, Ann Arbor, Mich.) was fired to produce a 10-mm depth injury. A 5-mm burr hole was made on the left for placement of the intracranial pressure (ICP) probe.

[8] = system: non-lethal TBI and hemorrhagic shock; conditions: 150 mg/kg; cited from earlier work
[9] = system: lethal model of polytrauma, HS and TBI; test: Survival in lethal swine model of polytrauma, hemorrhage and TBI (Example 1); assay type: in vivo
Excerpt: as §1
A 5 cm segment of the left rectus muscle was exposed and crushed using a Kelly clamp to create a soft tissue injury. Femur fracture and liver injury were performed as previously described (Ref. 20; incorporated by reference in its entirety). The mid-femur was exposed and fractured with a 22-gauge captive bolt gun (Ramset Mastershot, Glendale Heights, Ill.) fired point-blank on the femur. A reproducible grade V liver laceration was created with a liver crunch device placed 1 cm lateral to the porta and 7 cm posterior on the dome of the liver. After laceration the liver was allowed to bleed freely for 30 seconds. […] Laparotomy pads were weighed at the end of the experiment to confirm a consistent liver injury (500±50 mL hemorrhage volume).
as §3
Concurrent with TBI, 40% estimated total blood volume was withdrawn over 20 minutes using a Masterflex pump (Cole-Palmer, Vernon Hills, Ill.). The initial 20% blood volume was removed over the first 7 minutes, followed by an additional 20% blood volume at a slower rate over the subsequent 13 minutes. […] Mean arterial pressure (MAP) was maintained between 30-35 mmHg by adjusting the inhaled isoflurane, pausing hemorrhage if MAP persisted <30 mm Hg and giving 50-100 mL fluid boluses of NS.
After completion of hemorrhage, a one-hour shock phase began. This one hour was designed to simulate medic response time from the initial injury. During the shock phase, MAP was again maintained between 30-35 mmHg in order to standardize the effect of hypotension on the injured brain.
as §2

[10] = system: polytrauma, hemorrhage and TBI; test: Survival after IO or IV VPA in polytrauma, hemorrhage and TBI (Example 2); assay type: in vivo, swine; conditions: 150 mg/kg over 3 hours
Description: Animals underwent placement of femoral venous and arterial lines, a pulmonary artery catheter, and open cystostomy for invasive monitoring, hemorrhage and resuscitation. […] The abdomen was then packed, and animal flipped prone in preparation for TBI and hemorrhage. A 12 mm depth TBI was inflicted using a controlled cortical impact device, and the animal was simultaneously hemorrhaged 40% of its estimated blood volume over 20 minutes. At the completion of hemorrhage, the animal was left unresuscitated and in shock for 1 hour to simulate medic response time.
At the end of the shock phase, in order to simulate available resuscitative fluids available in a field care setting, all animals were resuscitated with normal saline via the femoral venous catheter with a standardized volume that was three times the hemorrhaged volume delivered over 1 hour. Animals were randomized to receive either a VPA administered IO (TO group) or administered IV (IV group) or to a control group. […] Placement of the needle was confirmed by aspiration of marrow and subsequent flush of 10 mL normal saline without extravasation. […] Animals were then monitored for another 4 hours to the predetermined end point. […]

[11] = system: lethal models of trauma; conditions: 300-450 mg/kg; cited from earlier work
[12] = Serum VPA after IO versus IV infusion (Example 2); assay type: in vivo; conditions: swine, 150 mg/kg over 3 hours
Description: At the end of the shock phase, in order to simulate available resuscitative fluids available in a field care setting, all animals were resuscitated with normal saline via the femoral venous catheter with a standardized volume that was three times the hemorrhaged volume delivered over 1 hour. […] Placement of the needle was confirmed by aspiration of marrow and subsequent flush of 10 mL normal saline without extravasation. […] To simulate a delayed transfer to definitive care, 3 hours after the start of normal saline resuscitation, animals were transfused autologous packed red blood cells that were hemorrhaged earlier in the experiment. Animals were then monitored for another 4 hours to the predetermined end point. […] Arterial blood gases were drawn from the femoral arterial line serially throughout the experiment.
GraphPad Prism v8 was used to analyze data (GraphPad Software, San Diego, Calif.).

[13] = Plasma VPA levels and pharmacokinetics (Example 1); assay type: in vivo, swine; conditions: for Clearance / Vd: pig, in vivo, iv; for Vd: read-out: Volume of distribution (Vd); for concentration at 5 h / concentration at 3 h: swine, plasma, intravenous, plasma VPA level; for concentration at 5 h: 5 hours after VPA infusion start
Excerpt: A separate group of sham animals underwent cannulation and line placement without infliction of polytrauma, hemorrhage or TBI for use in subsequent pharmacokinetic (PK) analysis.

[14] = group mean of 5 VPA-treated animals
[15] = individual VPA-treated animals 1-5, dose and regimen not given
[16] = 100 mg/kg, VPA 100 (injured, 100 mg/kg over 3 h)
[17] = 150 mg/kg, VPA 150 (injured, 150 mg/kg over 3 h)

For `CCCC(CCC)C(=O)O` [VPA, valproic acid], the adverse hemodynamic effects ([1]; 100 mg/kg over 2 hours) was “without causing any adverse hemodynamic effects”, the adverse hemodynamic effects ([1]; 150 mg/kg over 3 hours) was “without causing any adverse hemodynamic effects” and the “mean arterial pressure (MAP) after the treatment” value ([1]; VPA 150 (150 mg/kg over 3 hours) versus other groups) was “tended to have a higher MAP”. The adverse hemodynamic effects [2] was “does not cause adverse hemodynamic effects”, the histone acetylation [3] was “significant increase in histone acetylation” and the “creatine phosphokinase (CPK), group mean” value ([4]; VPA 100 (100 mg/kg over 3 h)) was 1581±321. For the same compound, the “Serum aspartate aminotransferase (AST)” value ([4]; VPA 100 (100 mg/kg over 3 h)) was 95±29, the “creatine phosphokinase (CPK), group mean” value ([4]; VPA 100 over 2 h) was 927±233 and the “Serum aspartate aminotransferase (AST)” value ([4]; VPA 100 over 2 h) was 101±22. For the same compound, the “creatine phosphokinase (CPK), group mean” value ([4]; VPA 150 (150 mg/kg over 3 h)) was 2428±1314, the “Serum aspartate aminotransferase (AST)” value ([4]; VPA 150 (150 mg/kg over 3 h)) was 177±95 and the “Area Under Curve” value [5, 14] was 616 µg·h/mL. For the same compound, the “Maximum Concentration” value [5, 14] was 145 mg/L, the “Area Under Curve” value [5, 15] was 431.4 µg·h/mL and 827.6 µg·h/mL and 635.2 µg·h/mL and 521.1 µg·h/mL and 663.7 µg·h/mL and the Clearance [5, 15] was 17.4 L/h and 7.43 L/h and 9.44 L/h and 13.2 L/h and 10.9 L/h. The Half-life [5, 15] was 1.85 h and 1.65 h and 1.58 h, the “Maximum Concentration” value [5, 15] was 98.12 mg/L and 199.3 mg/L and 142.8 mg/L and 124.5 mg/L and the Clearance ([5]; pig, in vivo, 150 mg/kg, group mean of 5 VPA-treated animals, read-out: Clearance (converted)) was 11.2 L/h. For the same compound, the Half-life ([5]; pig, in vivo, 150 mg/kg, group mean of 5 VPA-treated animals, read-out: Half-life (converted)) was 1.7 h, the Half-life ([5]; pig, in vivo, 150 mg/kg, individual VPA-treated animals 1-5, dose and regimen not given, read-out: Half-life (converted)) was 1.81 h and the peak plasma level [6] was 1271 µg/mL. The “brain lesion size controlled for time” value [7] was 4.1 mm^3/min, the “brain lesion size and neurologic recovery” value [8] was “attenuating brain lesion size and improving neurologic recovery” and the survival ([9]; 100 mg/kg over 2 hours (faster rate of infusion)) was “improved survival”. For the same compound, the “survival compared to NS resuscitation” value ([9]; 100 mg/kg over 3 hours) was “did not”, the “survival compared to NS resuscitation” value ([9]; 150 mg/kg over 3 hours) was “significantly improved survival” and the survival ([9]; VPA 100: 100 mg/kg IV over 3 hours with NS resuscitation) was 0%. The survival ([9]; VPA 100 over 2 h: 100 mg/kg IV over 2 hours with NS resuscitation) was 67%, the survival ([9]; VPA 150: 150 mg/kg IV over 3 hours with NS resuscitation, survival to end of experiment) was 83% and the “survival to the end of the experiment” value ([10]; IO group) was 100%. The “survival to the end of the experiment” value ([10]; IV group) was 100%, the survival [11] was “survival benefit” and the AUC ([12]; IV group) was 294 to 356 µg·h/mL. It also gave an AUC ([12]; other: intraosseous (IO needle in the left humeral head), IO group) of 301 to 470 µg·h/mL, a Clearance ([13]; 100 mg/kg, 100 mg/kg over 2 h (injured)) of 91.7 mL/min and a Clearance [13, 16] of 68.3 mL/min. It also gave a Vd [13, 16] of 16.1 ± 3.3 L, a Vd ([13]; 150 mg/kg, Sham VPA (uninjured, 150 mg/kg over 3 h)) of 12.1 ± 6 L and a Clearance [13, 17] of 102 mL/min. It also gave a Vd [13, 17] of 24.2 ± 3.8 L, a concentration at 5 h ([13]; 100 mg/kg, VPA 100 over 2 h (injured)) of 74 µg/mL and a concentration at 3 h ([13]; 100 mg/kg, VPA 100 over 2 h (injured), three hours after start of infusion) of 115 µg/mL. For the same compound, the concentration at 3 h ([13]; 150 mg/kg, Sham VPA (uninjured, 150 mg/kg over 3 h), three hours after start of infusion (end of infusion)) was 291 µg/mL, the concentration at 5 h ([13]; 150 mg/kg, VPA 150 (injured)) was 114 µg/mL and the concentration at 3 h ([13]; 150 mg/kg, VPA 150 (injured, 150 mg/kg over 3 h), three hours after start of infusion (end of infusion)) was 175 µg/mL.
